Test results: paper PMC11192711, “Automated radiosynthesis and preclinical evaluation of two new PSMA-617 derivatives radiolabelled via [^18F]AlF^2+ method” (EJNMMI Radiopharmacy and Chemistry, 2024)

Legend:
[1] = system: LNCaP tumour-bearing NSG mice; assay: PET/CT in vivo biodistribution and tumour uptake in subcutaneous LNCaP prostate cancer xenograft model; details: n = 4; for Bone (SUV mean) / Brain (SUV mean) / Colon (SUV mean) / Gall bladder (SUV mean) / Heart (SUV mean) / Kidney (SUV mean) / Liver (SUV mean) / Lung (SUV mean) / Muscle (SUV mean) / Salivary gland (SUV mean) / Small instestine (SUV mean): LNCaP NSG male mice, i.v., PET/CT; for ratio between tumour and muscle (tumour SUV max/muscle SUV mean) / uptake in the tumour expressed as SUV max: LNCaP tumour, NSG mice
Method: The uptake of [^18F]F-PSMA-1007 and [^18F]F-PSMA-617-NODA ([^18F]1) was compared in vivo in a xenograft model of human prostate cancer obtained using LNCaP cells which are PSMA positive, as confirmed by real time PCR-analysis (Additional file 1: S69A). LNCaP tumour-bearing NSG mice were injected i.v. with either [^18F]F-PSMA-1007 or [^18F]F-PSMA-617-NODA (~ 3.8 MBq/mouse, ~ 20 pmol for [^18F]F-PSMA-1007 and ~ 50 pmol [^18F]1). Radiotracer uptake was assessed after 10, 60 and 120 min post injection by whole-body PET/CT acquisitions.
Total body biodistribution of [^18F]F-PSMA-1007, [^18F]F-PSMA-617-NODA and [^18F]F-PSMA-617-RESCA was evaluated in vivo using imaging PET/CT. [^18F]F-PSMA-617-NODA uptake was compared to that of the [^18F]F-PSMA-1007 in a PSMA positive prostate tumour xenograft model (LNCaP). [^18F]F-PSMA-617-NODA and [^18F]F-PSMA-617-RESCA uptake were also evaluated using an orthotopic glioma model (Gli36ΔEGFR).
Animal experiments were carried out in compliance with institutional guidelines for the care and the use of experimental animals, which have been authorized by the Italian Ministry of Health (n° 378/2019-PR and 817/2021-PR). The animals were housed at constant temperature (23 °C) and relative humidity (40%) under a regular light/dark cycle with food and water available ad libitum. Seven to eight weeks old male NSG mice (Charles River Laboratories Italia s.r.l., Italy) were subcutaneously inoculated in the right flank with 5 × 10^6 of PSMA‐positive human prostate cancer cells (LNCaP) suspended in matrigel (1: 1, total volume 200 ul). The growth tumour was monitored periodically with calliper and tumour volume was calculated using the following formula: […]
When the tumour volume was about 230.8 ± 60.3 mm^3 (approximately 15 days after tumour cells inoculation), 4 animals performed an in vivo biodistribution of [^18F]F-PSMA-1007 and [^18F]F-PSMA-617-NODA, on successive but non-consecutive days, using PET/CT.
Mice were injected into a tail vein with 3.8 ± 0.1 MBq of [^18F]F-PSMA-1007, 4.0 ± 0.2 MBq of [^18F]F-PSMA-617-NODA ([^18F]1) and 3.8 ± 0.1 MBq of [^18F]F-PSMA-617-RESCA ([^18F]2), respectively.
Total body PET/CT acquisitions were performed using PET/CT tomographs dedicated to small animals, X-ß-CUBE (Molecubes, Gent, Belgium) after 10, 60 and 120 min from tracer injection. Each acquisition lasted 30 min and mice were maintained anesthetized (4% isoflurane in induction and 2% in maintenance in air) during acquisition.
Image quantification analysis was performed with PMOD 4.105 software (Zurich, Switzerland). Volumes of interest (VOIs) were drawn on peripheral organs (tumour, thoracic muscle, heart, liver, kidney, salivary glands, lung, small intestine, colon, bone, gall bladder) and on the healthy brain using CT images. For the glioma model, PET/CT images were co-registered to MRI images and two different VOIs were defined: (1) a control VOI covering the healthy left striatum (volume 4 mm^3) was drawn on the axial MR images, adjusted on the other imaging planes and then copied on the PET images of each mouse; (2) a second glioma-covering VOI was drawn in the tumour-affected brain hemisphere and centered on mice lesions.
For quantification, Standardized Uptake Value (SUV) was calculated according to the formula:
SUV = organ concentration activity [MBq/g]/(injected activity [MBq]/animal weight [g]).
The data were expressed as standardized-uptake-values (SUVmean and SUVmax) and as tumour-to-muscle (T/M) and tumour-to-blood (T/B) ratio in PCa model and as tumour-to-contralateral (T/Cl) ratio in glioma model.

[2] = Stability in human plasma (HPLC, radio-TLC, pellet/supernatant activity); assay type: in vitro ADME; details: for Stability in human plasma: 37 °C, up to 4 h, HPLC and radio-TLC; for Pellet activity / Supernatant activity: ACN precipitation
Method: Stability in plasma was evaluated mixing aliquots of [^18F]1 or [^18F]2 solutions (10 MBq for 2 h incubation and 20 MBq for 4 h incubation samples) with 200 µL of human serum. The mixtures were incubated at 37 °C. Aliquots were taken at 2 h and 4 h. Plasma pellet was precipitated with 200 µL acetonitrile and centrifuged (13,500 rpm, 10 min). The supernatant was removed, and the activity of the supernatant solution and pellet was measured using a dose calibrator (VIK-202 Comecer). The supernatant solution was analyzed injecting in RP-HPLC (diluted 1:5 in water) and Radio-TLC as above described.

[3] = [18F]1, 2 h incubation in plasma, total activity incubated 3.6 MBq
[4] = [18F]1, 4 h incubation in plasma, total activity incubated 3.89 MBq

## O=C(O)CCC(NC(=O)NC(CCCCNC(=O)C(Cc1ccc2ccccc2c1)NC(=O)C1CCC(CNC(=O)CCCN2CCN(CC(=O)O)CCN(CC(=O)O)CC2)CC1)C(=O)O)C(=O)O.[18F][Al] [[^18F]F-PSMA-617-NODA, (((S)-5-((S)-2-((1R,4S)-4-((4-(4,7-bis(carboxymethyl)-1,4,7-triazonan-1-yl)butanamido)methyl)cyclohexane-1-carboxamido)-3-(naphthalen-2-yl)propanamido)-1-carboxypentyl)carbamoyl)-L-glutamic acid [^18F] aluminium fluoride]
[1]; 10 min p.i.
  Bone (SUV mean): 0.20 ± 0.12
  Brain (SUV mean): 0.05 ± 0.003
  Colon (SUV mean): 0.30 ± 0.08
  Gall bladder (SUV mean): 0.27 ± 0.05
  Heart (SUV mean): 0.30 ± 0.03
  Kidney (SUV mean): 8.50 ± 1.40
  Liver (SUV mean): 0.22 ± 0.02
  Lung (SUV mean): 0.31 ± 0.04
  Muscle (SUV mean): 0.15 ± 0.05
  Salivary gland (SUV mean): 0.49 ± 0.05
  Small instestine (SUV mean): 0.23 ± 0.05
[1]; 60 min p.i.
  Bone (SUV mean): 0.23 ± 0.11
  Brain (SUV mean): 0.03 ± 0.01
  Colon (SUV mean): 0.17 ± 0.02
  Gall bladder (SUV mean): 0.14 ± 0.07
  Heart (SUV mean): 0.09 ± 0.02
  Kidney (SUV mean): 6.39 ± 2.14
  Liver (SUV mean): 0.10 ± 0.02
  Lung (SUV mean): 0.14 ± 0.01
  Muscle (SUV mean): 0.04 ± 0.01
  Salivary gland (SUV mean): 0.18 ± 0.08
  Small instestine (SUV mean): 0.16 ± 0.05
  ratio between tumour and muscle (tumour SUV max/muscle SUV mean): 30.29 ± 10.46
  uptake in the tumour expressed as SUV max: 1.11 ± 0.24
[1]; 120 min p.i.
  Bone (SUV mean): 0.25 ± 0.12
  Brain (SUV mean): 0.02 ± 0.01
  Colon (SUV mean): 0.13 ± 0.06
  Gall bladder (SUV mean): 0.03 ± 0.02
  Heart (SUV mean): 0.03 ± 0.01
  Kidney (SUV mean): 2.43 ± 1.24
  Liver (SUV mean): 0.04 ± 0.01
  Lung (SUV mean): 0.04 ± 0.01
  Muscle (SUV mean): 0.02 ± 0.01
  Salivary gland (SUV mean): 0.04 ± 0.02
  Small instestine (SUV mean): 0.06 ± 0.03
  ratio between tumour and muscle (tumour SUV max/muscle SUV mean): 83.53 ± 48.71
  uptake in the tumour expressed as SUV max: 0.94 ± 0.12
[2]; listed as [^18F]1
  Stability in human plasma: stable
[2]; listed as [^18F]PSMA-617-NODA
  Stability in human plasma: no substantial release of [^18F]AlF^2+
[2]; [3]
  Pellet activity: 0.4 MBq
  Supernatant activity: 3.2 MBq
[2]; [4]
  Pellet activity: 0.45 MBq
  Supernatant activity: 3.44 MBq
[2]; stability tests in human plasma
  protein uptake: ~ 11%
